Measurements published in ChEMBL document CHEMBL3259594, “Benzylpiperidine variations on histamine H3 receptor ligands for improved drug-likeness” (Bioorg Med Chem Lett, 2014).

Each compound was assayed against Histamine H3 receptor (Rattus norvegicus, UniProt Q9QYN8) (assay: Binding affinity to rat histamine H3 receptor).
Histamine H3 receptor (Rattus norvegicus, UniProt Q9QYN8), sequence (Q9QYN8 whole entry): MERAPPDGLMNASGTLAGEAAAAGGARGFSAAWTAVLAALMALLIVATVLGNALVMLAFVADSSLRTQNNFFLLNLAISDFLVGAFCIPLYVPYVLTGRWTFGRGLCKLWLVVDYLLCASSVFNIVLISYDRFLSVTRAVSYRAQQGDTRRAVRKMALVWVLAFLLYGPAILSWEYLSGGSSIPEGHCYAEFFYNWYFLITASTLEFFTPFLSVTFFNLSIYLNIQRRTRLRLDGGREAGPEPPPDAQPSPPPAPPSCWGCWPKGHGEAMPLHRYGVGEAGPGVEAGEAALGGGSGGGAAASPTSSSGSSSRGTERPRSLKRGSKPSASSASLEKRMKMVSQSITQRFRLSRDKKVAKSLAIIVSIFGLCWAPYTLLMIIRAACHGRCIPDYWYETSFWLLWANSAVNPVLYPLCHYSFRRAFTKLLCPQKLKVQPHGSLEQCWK

Ki [nM]	SMILES
0.58	c1cc(OCCCN2CCCCC2)ccc1CN1CCCCC1 [JNJ-5207852]

These compounds were tested against T1, Histamine H3 receptor (Homo sapiens, UniProt Q9Y5N1) (assay: Displacement of [3H]N-alpha-methylhistamine from recombinant human histamine H3 receptor expressed in HEK293 cells after 90 mins).
Type: cell-based

T1 sequence (Q9Y5N1 whole entry): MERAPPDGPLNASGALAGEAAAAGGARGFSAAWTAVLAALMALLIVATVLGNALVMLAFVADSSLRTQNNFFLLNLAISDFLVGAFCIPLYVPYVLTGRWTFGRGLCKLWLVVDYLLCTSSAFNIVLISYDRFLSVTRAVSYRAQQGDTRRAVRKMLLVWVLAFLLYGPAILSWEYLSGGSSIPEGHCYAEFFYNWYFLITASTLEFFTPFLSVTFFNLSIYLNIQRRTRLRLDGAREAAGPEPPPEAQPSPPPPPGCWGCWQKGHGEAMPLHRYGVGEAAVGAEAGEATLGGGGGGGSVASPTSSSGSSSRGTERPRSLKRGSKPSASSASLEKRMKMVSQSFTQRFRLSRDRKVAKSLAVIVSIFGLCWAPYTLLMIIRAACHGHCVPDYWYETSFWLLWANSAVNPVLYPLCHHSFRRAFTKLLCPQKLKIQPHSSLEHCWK

Ki [nM]	SMILES
12.9	O=C(O)C1CCN(Cc2ccc(OCCCN3CCCCC3)cc2)CC1
0.589	OC1CCN(Cc2ccc(OCCCN3CCCCC3)cc2)CC1
0.229	CCOC(=O)C1CCN(Cc2ccc(OCCCN3CCCCC3)cc2)CC1
0.479	Cc1nnc(C2CCN(Cc3ccc(OCCCN4CCCCC4)cc3)CC2)o1
0.676	OCC1CCN(Cc2ccc(OCCCN3CCCCC3)cc2)CC1

Each compound was assayed against T1, Histamine H3 receptor (assay: Displacement of [125I]Iodoproxyfan from recombinant human histamine H3 receptor expressed in HEK293 cells after 90 mins).
Type: cell-based

Ki [nM]	SMILES
11	C#CCNC(=O)C1CCN(Cc2ccc(OCCCN3CCCCC3)cc2)CC1
2.95	CCNC(=O)C1CCN(Cc2ccc(OCCCN3CCCCC3)cc2)CC1
2.04	c1cc(OCCCN2CCCCC2)ccc1CN1CCC2(CC1)OCCO2
2.95	c1ccc2c(c1)CCN(Cc1ccc(OCCCN3CCCCC3)cc1)C2
2.51	O=C1CCN(Cc2ccc(OCCCN3CCCCC3)cc2)CC1
